Measured values: patent US12491170B2, “Stable treprostinil prodrugs” (United Therapeutics Corporation, priority 2020, dated 2025)
Where two headings read alike, the source gives them in different places.

Tests used:
[1] = Stability in liver microsomes, human; conditions: for AUC: human
Method: (§1) Mixed-gender human liver microsomes, male Sprague-Dawley rat liver microsomes, and male Beagle dog liver microsomes were purchased from XenoTech. The reaction mixture, minus NADPH, was prepared as described below. […] An aliquot of the reaction mixture (without cofactor) was equilibrated in a shaking water bath at 37° C. for 5 minutes. The reaction was initiated by the addition of cofactor, and the mixture was incubated in a shaking water bath at 37° C. Aliquots (200 μL) were withdrawn at 0, 10, 20, 30, and 60 minutes. Test article samples were immediately combined with 400 μL of ice-cold acetonitrile (ACN) to terminate the reaction. […] The samples were then mixed and centrifuged to precipitate proteins. Aliquots of the supernatant were removed, diluted 1:1 into distilled water containing internal standard, and analyzed by LC-MS/MS against calibration standards prepared in a matched matrix. All samples were analyzed for the dosed prodrugs as well as the drug, treprostinil. The test article concentration was compared to the concentration at time 0 to determine the percent of test article remaining at each time point. Half-lives and clearance were calculated using GraphPad software, fitting to a single-phase exponential decay equation.
(§2) • Liver Microsomes 0.5 mg/mL • NADPH (cofactor) 1 mM • Potassium Phosphate, pH 7.4 100 mM • Magnesium Chloride 5 mM • Test Article 1 μM

[2] = Stability in liver microsomes, rat
Method: as §1, §2

[3] = Stability in liver microsomes, dog
Method: as §1, §2

[4] = Stability in cryopreserved hepatocytes, human; conditions: for AUC: human
Method: (§3) Mixed-gender human cryopreserved hepatocytes, male Sprague-Dawley rat cryopreserved hepatocytes, and male Beagle dog cryopreserved hepatocytes were purchased from XenoTech. The hepatocytes were thawed and prepared according to the vendor's instructions, pooled into Krebs Henseleit buffer (KHB, pH 7.4), and kept on ice prior to the experiments. […] The final DMSO content in the incubation mixture was ≤0.1%. […] Aliquots of the test article were withdrawn (n=1) at 0, 15, 30, 60, and 120 minutes. […] Aliquots of 7-HC were withdrawn (n=1) at 0 and 15 minutes. The reaction was immediately terminated by adding two volumes of ice-cold acetonitrile (ACN) to the test article samples and three volumes of ACN containing internal standard to the positive control samples. The samples were then mixed and centrifuged to precipitate proteins. An aliquot of the supernatant was then diluted with water and analyzed by LC-MS/MS against calibration standards prepared in a matched matrix. […] All test article samples were analyzed for the dosed prodrugs as well as the drug, treprostinil. The test article concentration was compared to the concentration at time 0 to determine the percent of test article remaining at each time point. Half-lives and clearance values were calculated using GraphPad software, fitting to a single-phase exponential decay equation.

[5] = Stability in cryopreserved hepatocytes, rat; conditions: for AUC: rat
Method: as §3

[6] = Stability in cryopreserved hepatocytes, dog; conditions: for AUC: dog
Method: as §3

[7] = rat
[8] = dog

Trep Concentration 0 min [1] [µM]	Trep Concentration 10 min [1] [µM]	Trep Concentration 20 min [1] [µM]	Trep Concentration 30 min [1] [µM]	Trep Concentration 60 min [1] [µM]	AUC [1] [µmol·min/L]	Trep Concentration 0 min [2] [µM]	Trep Concentration 10 min [2] [µM]	Trep Concentration 20 min [2] [µM]	Trep Concentration 30 min [2] [µM]	Trep Concentration 60 min [2] [µM]	Trep Concentration 0 min [3] [µM]	Trep Concentration 10 min [3] [µM]	Trep Concentration 20 min [3] [µM]	Trep Concentration 30 min [3] [µM]	Trep Concentration 60 min [3] [µM]	Trep Concentration (μM) 0 min [4] [µM]	Trep Concentration (μM) 15 min [4] [µM]	Trep Concentration (μM) 30 min [4] [µM]	Trep Concentration (μM) 60 min [4] [µM]	Compound	also measured
0.0917	0.141	0.174	0.2	0.206	10.70	0.0741	0.0998	0.124	0.139	0.139	0.127	0.188	0.254	0.3	0.372	0	0.0881	0.14	0.194	CCCCCC(CCC1C(O)CC2Cc3c(cccc3OCC(=O)O)CC21)OC(=O)c1ccc(C(F)(F)F)cc1 (centres unmarked) [LXII]	Trep Concentration (μM) 120 min [4]: 0.222 µM; AUC [4]: 19.86 µmol·min/L; Trep Concentration (μM) 0 min [5]: 0.00378 µM; Trep Concentration (μM) 15 min [5]: 0.0946 µM; Trep Concentration (μM) 30 min [5]: 0.156 µM; Trep Concentration (μM) 60 min [5]: 0.227 µM; Trep Concentration (μM) 120 min [5]: 0.264 µM; AUC [5]: 23.09 µmol·min/L; Trep Concentration (μM) 0 min [6]: 0 µM; Trep Concentration (μM) 15 min [6]: 0.0486 µM; Trep Concentration (μM) 30 min [6]: 0.0833 µM; Trep Concentration (μM) 60 min [6]: 0.128 µM; Trep Concentration (μM) 120 min [6]: 0.166 µM; AUC [6]: 13.34 µmol·min/L; AUC [7]: 7.47 µmol·min/L; AUC [8]: 16.64 µmol·min/L
0.105	0.14	0.137	0.126	0.0865	7.11	0.0226	0.033	0.0396	0.0481	0.0609	0.0189	0.0283	0.0363	0.044	0.059	0	0.0671	0.102	0.123	CCCCCC(CCC1C(O)CC2Cc3c(cccc3OCC(=O)O)CC21)OC(=O)c1cccc(O)c1 (centres unmarked) [LX]	Trep Concentration (μM) 120 min [4]: 0.137 µM; AUC [4]: 12.95 µmol·min/L; Trep Concentration (μM) 0 min [5]: 0 µM; Trep Concentration (μM) 15 min [5]: 0.021 µM; Trep Concentration (μM) 30 min [5]: 0.0343 µM; Trep Concentration (μM) 60 min [5]: 0.0477 µM; Trep Concentration (μM) 120 min [5]: 0.0634 µM; AUC [5]: 5.14 µmol·min/L; Trep Concentration (μM) 0 min [6]: 0 µM; Trep Concentration (μM) 15 min [6]: 0.00428 µM; Trep Concentration (μM) 30 min [6]: 0.00492 µM; Trep Concentration (μM) 60 min [6]: 0.00784 µM; AUC [6]: 0.88 µmol·min/L; AUC [7]: 2.72 µmol·min/L; AUC [8]: 2.51 µmol·min/L
0	0	0	0	0	0.00	0	0	0	0	0	0	0	0.003	0	0	0	0	0	0	CCCCCC(CCC1C(O)CC2Cc3c(cccc3OCC(=O)O)CC21)Oc1ccccc1C(=O)O (centres unmarked) [LVI]	Trep Concentration (μM) 120 min [4]: 0 µM; AUC [4]: 0.00 µmol·min/L; Trep Concentration (μM) 0 min [5]: 0 µM; Trep Concentration (μM) 15 min [5]: 0 µM; Trep Concentration (μM) 30 min [5]: 0 µM; Trep Concentration (μM) 60 min [5]: 0 µM; Trep Concentration (μM) 120 min [5]: 0 µM; AUC [5]: 0.00 µmol·min/L; Trep Concentration (μM) 0 min [6]: 0 µM; Trep Concentration (μM) 15 min [6]: 0.005 µM; Trep Concentration (μM) 30 min [6]: 0.005 µM; Trep Concentration (μM) 60 min [6]: 0.003 µM; Trep Concentration (μM) 120 min [6]: 0 µM; AUC [6]: 0.00 µmol·min/L; AUC [7]: 0.00 µmol·min/L; AUC [8]: 0.00 µmol·min/L
0.00327	0.00286	0.00309	0.00264	0.00244	0.17	0.00345	0.00356	0.00419	0.00488	0.00552	0.00302	0.00333	0.00398	0.00409	0.00389	0.00177	0.00195	0.00202	0.00194	CCCCCC(CCC1C(O)CC2Cc3c(cccc3OCC(=O)O)CC21)OCCN1CCOCC1 (centres unmarked) [L]	Trep Concentration (μM) 120 min [4]: 0.00197 µM; AUC [4]: 0.23 µmol·min/L; Trep Concentration (μM) 0 min [5]: 0 µM; Trep Concentration (μM) 15 min [5]: 0.00347 µM; Trep Concentration (μM) 30 min [5]: 0.00366 µM; Trep Concentration (μM) 60 min [5]: 0.00352 µM; Trep Concentration (μM) 120 min [5]: 0.0034 µM; AUC [5]: 0.39 µmol·min/L; Trep Concentration (μM) 0 min [6]: 0.00247 µM; Trep Concentration (μM) 15 min [6]: 0.00312 µM; Trep Concentration (μM) 30 min [6]: 0.0106 µM; Trep Concentration (μM) 60 min [6]: 0.00355 µM; Trep Concentration (μM) 120 min [6]: 0.00568 µM; AUC [6]: 0.63 µmol·min/L; AUC [7]: 0.28 µmol·min/L; AUC [8]: 0.23 µmol·min/L
